Here are results for one molecule from patent US20190202836A1, “SELECTIVE DUAL INHIBITORS OF PI3 DELTA AND GAMMA PROTEIN KINASES” (Rhizen Pharmaceuticals SA, priority 2014, published 2019).

pEC50, pIC50: −log10 of the molar value.

For data set [1], the system named is mouse whole blood B-cell proliferation (CD45R). Description: Assay 6B: Inhibition of LPS induced CD45R in mouse whole blood. The format is cell-based. Conditions: diluted mouse whole blood, 72 hours, read-out: EC50, inhibition of LPS-induced mouse whole blood B-cell proliferation (CD45R expression). How it is done:
The effect of Compound A1 on modulating B-cell receptor (BCR)-activated proliferation of human or mouse B-lymphocytes was determined. CD19 is a protein present on B cells from the earliest recognizable B-lineage cells during development to B-cell blasts but is however lost on maturation to plasma cells. LPS is an endotoxin and a major component of environmental microbes with a potent mitogenic activity on B-cells via the […].
Briefly, diluted mouse whole blood was treated with of DMSO or desired concentrations of Compound A1. Samples were induced with LPS 15 minutes after compound addition, and incubated for 72 hours at 37° C. and 5% CO2. Cells positive for CD45 and CD45R were determined by flow cytometry. Data are expressed as percentage CD45R positive cells in the total population.

For data set [2], the system named is pAKT in T-lymphoma (MOLT-4, Jurkat, CCRF-CEM and Hut-78) cell lines. Description: Assay 3: Inhibition of AKT phosphorylation in leukemic cell lines. Conditions: 48 hours, Western Blotting, range over the cell lines, read-out: EC50, reduction in pAKT expression. The format is cell-based. The procedure: MOLT-4, Jurkat, CCRF-CEM, and Hut-78 cells were incubated with desired concentrations of compound for 48 hours. Cells were lysed and pAKT determined by Western Blotting. Bands were quantified using ImageJ and normalized to actin.

In another data set the target is T1, PI3K alpha (Mus musculus, UniProt P42337).
T1 construct: endogenous in cells; host or cells: 3T3 fibroblasts
T1 sequence (P42337 whole entry): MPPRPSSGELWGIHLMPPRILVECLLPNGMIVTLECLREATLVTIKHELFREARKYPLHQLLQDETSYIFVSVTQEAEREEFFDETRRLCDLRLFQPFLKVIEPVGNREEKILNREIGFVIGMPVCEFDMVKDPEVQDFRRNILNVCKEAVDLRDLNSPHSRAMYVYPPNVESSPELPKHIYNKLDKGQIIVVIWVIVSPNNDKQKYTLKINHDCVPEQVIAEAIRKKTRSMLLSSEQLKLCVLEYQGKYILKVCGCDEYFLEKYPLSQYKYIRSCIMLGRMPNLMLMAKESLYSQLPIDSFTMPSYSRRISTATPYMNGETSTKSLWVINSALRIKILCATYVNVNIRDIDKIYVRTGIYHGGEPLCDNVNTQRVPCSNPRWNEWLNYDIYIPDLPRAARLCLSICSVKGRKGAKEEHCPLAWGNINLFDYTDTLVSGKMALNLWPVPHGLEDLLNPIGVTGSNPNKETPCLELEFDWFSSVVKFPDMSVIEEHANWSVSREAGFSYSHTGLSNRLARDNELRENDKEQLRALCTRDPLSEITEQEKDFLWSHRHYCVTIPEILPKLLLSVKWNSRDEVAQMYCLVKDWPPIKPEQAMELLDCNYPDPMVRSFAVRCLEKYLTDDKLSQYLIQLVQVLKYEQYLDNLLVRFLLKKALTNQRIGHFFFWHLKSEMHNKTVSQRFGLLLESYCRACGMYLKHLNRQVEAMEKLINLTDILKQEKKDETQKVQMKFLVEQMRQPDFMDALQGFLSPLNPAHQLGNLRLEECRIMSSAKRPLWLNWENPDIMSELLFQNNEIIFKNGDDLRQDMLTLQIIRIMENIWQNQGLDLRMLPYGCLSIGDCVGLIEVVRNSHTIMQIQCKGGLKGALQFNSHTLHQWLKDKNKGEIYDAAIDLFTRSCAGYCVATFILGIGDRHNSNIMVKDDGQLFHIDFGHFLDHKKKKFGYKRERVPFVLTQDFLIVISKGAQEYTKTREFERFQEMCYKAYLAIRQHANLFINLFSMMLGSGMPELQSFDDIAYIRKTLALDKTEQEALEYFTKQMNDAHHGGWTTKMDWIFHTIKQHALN
T1 sequence (P26450 whole entry partner): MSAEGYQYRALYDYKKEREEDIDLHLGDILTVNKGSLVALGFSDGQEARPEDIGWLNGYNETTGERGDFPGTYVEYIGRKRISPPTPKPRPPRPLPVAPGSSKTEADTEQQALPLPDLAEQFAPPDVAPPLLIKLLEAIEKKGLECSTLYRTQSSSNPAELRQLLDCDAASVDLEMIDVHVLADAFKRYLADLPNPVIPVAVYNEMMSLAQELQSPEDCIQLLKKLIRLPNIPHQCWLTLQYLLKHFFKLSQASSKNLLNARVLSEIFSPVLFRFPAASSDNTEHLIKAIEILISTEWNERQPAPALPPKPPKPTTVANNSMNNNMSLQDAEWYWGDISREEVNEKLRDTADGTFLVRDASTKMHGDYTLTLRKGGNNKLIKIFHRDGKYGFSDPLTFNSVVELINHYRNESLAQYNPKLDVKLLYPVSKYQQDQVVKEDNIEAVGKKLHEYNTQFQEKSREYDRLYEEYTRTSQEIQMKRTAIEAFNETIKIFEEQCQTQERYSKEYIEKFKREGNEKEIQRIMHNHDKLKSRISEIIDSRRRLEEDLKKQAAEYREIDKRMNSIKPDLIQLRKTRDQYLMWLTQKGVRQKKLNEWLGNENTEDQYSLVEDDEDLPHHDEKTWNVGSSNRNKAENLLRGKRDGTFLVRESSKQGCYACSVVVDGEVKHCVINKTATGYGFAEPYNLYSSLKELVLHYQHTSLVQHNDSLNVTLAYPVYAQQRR
Nature of the data set: Assay 4A4: PDGF induced Akt phosphorylation in 3T3 cells. In kind it is cell-based. Conditions: 3T3 fibroblasts. The procedure: The objective of this study was to determine the effect of Compound A1 on PI3Kα kinase mediated AktS473 phosphorylation in PDGF induced 3T3 fibroblasts. • 3T3 cells were treated with desired concentrations of the test compound for 15 minutes. 1 ml of 2× PDGF was added such that the final concentration was 20 ng/ml and incubated for 10 minutes. • Media was discarded and washed with 1 ml of ice-cold 1× PBS. • 250 μl of cell lysis buffer was added and incubated on ice for 30 minutes. • Samples were centrifuged and supernatant was collected and stored at −80° C. until analysis. • Samples were analyzed by Western Blotting using pAKT (S473) as the primary and anti-rabbit IgG-HRP as a secondary antibody. • Intensity of the bands was determined using ImageJ 1.42q (NIH, USA) and normalized to Actin (loading control). Data was plotted using GraphPad Prism (Version 5.02).

Data set [3] in a line: Metabolic stability in rat liver microsomes. The format is in vitro ADME. The conditions noted are these: 1 μM test item, 60 minutes, 37° C., NADPH. How it is done:
(§1) Metabolic stability studies were conducted on Compounds A, A1, and A2 as well as Example 128 of WO 2012/151525 using mouse, rat, dog, monkey, and human liver microsomes. The protocol for the studies with mouse, rat, and human liver microsomes (all from BD Gentest, USA) is provided below. 0.4 mg protein was preincubated with 2 mM NADPH (cofactor) in phosphate buffer (pH-7.4) for 15 minutes at 37° C. and then added with 1 μM test item and incubated further for 60 minutes in triplicate. The reaction mixture was terminated with methanol containing an internal standard and centrifuged further to analyze the test item remaining in the supernatant by LC-MS/MS. The percent parent compound remaining was calculated in comparison with similar samples terminated at 0 minutes.
For orientation: Liver microsomes are vesicles of endoplasmic reticulum, rich in cytochrome P450 enzymes.

A short description of data set [4]: Plasma protein binding (equilibrium dialysis), rat. The format is in vitro ADME. Conditions: pH 7.4, 37° C. How it is done: (§2) Below is provided the procedure for measuring plasma protein binding (using an equilibrium dialysis method). 745 μL of plasma was transferred into a 2 ml micro centrifuge tube. To that 5 μL of Compound A1 (150 μM) was added. Samples were mixed in the table top vortexer for 2 minutes. 50 μL plasma (n=2) was transferred in a pre-labeled 1.5 mL micro centrifuge tube treated as 0 hour sample.
(§3) The remaining 650 μL plasma sample were incubated for 30 minutes at 37° C. in a water bath. After 30 minute incubation, 50 μL plasma (n=2) was removed in a pre-labelled 1.5 mL micro centrifuge tube treated as 0.5 hour sample. 200 μL of the plasma sample (n=2) was transferred into the sample chamber which was indicated by the red ring. The red insert was placed into the base plate and 350 μL of buffer was transferred into the buffer chamber. Plates were incubated at 37° C. at approximately 100 RPM on an orbital shaker or 20 RPM on an up-and-down shaker for 4 hours. 50 μL of post dialysis-sample from the buffer and the plasma chambers were transferred into a pre-labelled micro centrifuged tube. 50 μL of plasma was added to the buffer samples and an equal volume of buffer (KH2PO4 Buffer pH 7.4) to the collected plasma samples. 150 μL of methanol containing internal standard (Tolbutamide 250 ng/ml) was added to precipitate the protein and release compound. […]

Data set [5] in a line: Metabolic stability in mouse liver microsomes. The format is in vitro ADME. The conditions noted are these: 1 μM test item, 60 minutes, 37° C., NADPH. The procedure: as §1
In another data set the target is PI3Kδ (Homo sapiens, UniProt O00329). Description: Assay 1: Fluorescent (HTRF) determination of PI3 kinase enzyme activity, PI3Kδ. The format is biochemical. The source says: Phosphoinositide 3 kinases (PI3K) belong to a class of lipid kinases that play a critical role in the regulation of several key cellular processes. The PI3K are capable of phosphorylating the 3-hydroxy position of phosphoinositols thereby generating second messengers involved in downstream signaling events. The homogenous time resolved fluorescence (HTRF) assay allows detection of 3,4,5-triphosphate (PIPS) formed as a result of phosphorylation of phosphotidylinositol 4,5-biphosphate (PIP2) by PI3K isoforms such as α, β, γ or δ.
Chain of PI3Kδ (O00329 whole entry, canonical isoform): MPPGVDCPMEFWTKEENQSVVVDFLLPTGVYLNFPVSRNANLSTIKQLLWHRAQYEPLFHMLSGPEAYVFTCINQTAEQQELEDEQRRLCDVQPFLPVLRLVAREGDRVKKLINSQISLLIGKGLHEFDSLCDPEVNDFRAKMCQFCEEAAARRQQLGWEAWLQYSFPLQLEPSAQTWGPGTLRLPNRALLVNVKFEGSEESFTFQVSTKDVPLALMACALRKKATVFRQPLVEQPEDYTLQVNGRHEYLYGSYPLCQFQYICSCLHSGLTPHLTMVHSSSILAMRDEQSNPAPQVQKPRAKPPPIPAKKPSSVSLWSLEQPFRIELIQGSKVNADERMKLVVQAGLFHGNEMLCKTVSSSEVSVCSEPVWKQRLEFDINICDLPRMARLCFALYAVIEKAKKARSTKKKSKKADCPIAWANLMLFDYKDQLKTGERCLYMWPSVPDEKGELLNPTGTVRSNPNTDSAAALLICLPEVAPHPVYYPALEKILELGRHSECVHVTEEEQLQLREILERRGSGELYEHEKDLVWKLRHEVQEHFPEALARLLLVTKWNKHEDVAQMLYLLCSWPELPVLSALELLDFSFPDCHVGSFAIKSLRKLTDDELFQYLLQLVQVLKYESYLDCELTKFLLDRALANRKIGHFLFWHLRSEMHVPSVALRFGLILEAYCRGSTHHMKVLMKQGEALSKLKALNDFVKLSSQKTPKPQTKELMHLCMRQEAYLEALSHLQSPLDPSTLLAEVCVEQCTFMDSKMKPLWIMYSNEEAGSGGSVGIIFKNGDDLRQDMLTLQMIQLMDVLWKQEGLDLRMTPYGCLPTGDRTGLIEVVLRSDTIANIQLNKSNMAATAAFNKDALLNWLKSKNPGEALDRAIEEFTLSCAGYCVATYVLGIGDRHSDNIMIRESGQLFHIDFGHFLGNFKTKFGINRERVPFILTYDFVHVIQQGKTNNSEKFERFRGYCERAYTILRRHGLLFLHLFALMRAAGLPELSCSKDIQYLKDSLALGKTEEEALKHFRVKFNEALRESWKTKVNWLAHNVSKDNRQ
Chain of PI3Kδ (P27986 whole entry partner, canonical isoform): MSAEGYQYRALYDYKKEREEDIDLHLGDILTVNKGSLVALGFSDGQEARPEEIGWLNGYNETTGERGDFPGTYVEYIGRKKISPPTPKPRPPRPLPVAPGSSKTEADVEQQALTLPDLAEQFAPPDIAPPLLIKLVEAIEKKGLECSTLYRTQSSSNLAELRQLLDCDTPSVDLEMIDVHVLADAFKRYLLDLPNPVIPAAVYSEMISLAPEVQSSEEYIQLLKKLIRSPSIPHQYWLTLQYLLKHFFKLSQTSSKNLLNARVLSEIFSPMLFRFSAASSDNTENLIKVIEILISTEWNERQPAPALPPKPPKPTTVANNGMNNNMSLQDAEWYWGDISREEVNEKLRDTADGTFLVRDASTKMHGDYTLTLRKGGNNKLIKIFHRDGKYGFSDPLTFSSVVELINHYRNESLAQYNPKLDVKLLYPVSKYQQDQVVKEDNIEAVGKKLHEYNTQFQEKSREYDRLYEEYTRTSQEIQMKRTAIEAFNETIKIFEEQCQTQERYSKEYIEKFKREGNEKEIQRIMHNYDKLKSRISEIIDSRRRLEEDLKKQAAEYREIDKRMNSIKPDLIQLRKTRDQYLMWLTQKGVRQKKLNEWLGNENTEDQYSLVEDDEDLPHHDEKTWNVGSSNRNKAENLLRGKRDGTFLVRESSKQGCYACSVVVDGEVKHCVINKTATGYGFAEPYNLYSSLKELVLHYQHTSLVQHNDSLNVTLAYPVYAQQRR
PI3K isoform activity for α, β, γ or δ was determined using a PI3K human HTRF™ Assay Kit (Millipore, Billerica, Mass.) with modifications. All incubations were carried out at room temperature. 0.5 μl of 40× inhibitor (in 100% DMSO) or 100% DMSO were added to each well of a 384-well white plate (Greiner Bio-One, Monroe, N.C.) containing 14.5 μl 1× reaction buffer/PIP2 (10 mM MgCl2, 5 mM DTT, 1.38 μM PIP2) mix with or without enzyme, followed by 5 μl/well of 400 μM ATP and incubated for an additional 30 minutes. The reaction was terminated by adding 5 μl/well stop solution (Millipore, Billerica, Mass.). 5 μl of detection mix (Millipore, Billerica, Mass.) was then added to each well and incubated for 6-18 hours in the dark. HRTF ratio was measured on a microplate reader (BMG Labtech., Germany) at an excitation wavelength of 337 nm and emission wavelengths of 665 and 615 nm with an integration time of 400 msec counting delay of 50 msec.
In general terms: TR-FRET usually uses a lanthanide donor and a delayed reading to cut background.

Data set [6] in a line: Plasma protein binding (equilibrium dialysis), mouse. The format is in vitro ADME. The conditions noted are these: pH 7.4, 37° C. The procedure:
as §2, §3
(In equilibrium dialysis only unbound substance equilibrates across the membrane.)

On to `COc1ccc(-c2nn([C@@H](C)c3oc4cccc(F)c4c(=O)c3-c3cccc(F)c3)c3ncnc(N)c23)cc1NS(C)(=O)=O` [Compound A1, (S)—N-(5-(4-amino-1-(1-(5-fluoro-3-(3-fluorophenyl)-4-oxo-4H-chromen-2-yl)ethyl)-1H-pyrazolo[3,4-d]pyrimidin-3-yl)-2-methoxyphenyl)methanesulfonamide], for which the pEC50 is 6.89 in data set [1] and 5.80 to 7.70 in data set [2]. For the same molecule, the “inhibition of PDGF induced AktS473 phosphorylation at 10 μM” value at PI3K alpha (10 μM) is listed as “No inhibition”. The pIC50 on PI3K alpha (PDGF 20 ng/ml, read-out: Cellular IC50 PI3K alpha (PDGF induced pAKT in 3T3 fibroblasts)) was below 5.00. Also, the “Metabolic stability in liver microsomes (percent parent compound remaining), Rat” value in data set [3] was 94.2%. The fraction unbound at 4 h, 1 μM was 0.0096 in data set [4] and 0.0239 in data set [6]. In data set [5], the “Metabolic stability in liver microsomes (percent parent compound remaining), Mouse” value came out at 85.9%. At PI3Kδ, this molecule displayed an IC50 of 30.5 nM.

By pIC50 is commonly meant the IC50 on a negative log10 scale, so that one unit is a factor of ten. The term fraction unbound denotes free concentration divided by total concentration. The term IC50 denotes the concentration needed to halve the response being measured. A lower IC50 goes with greater potency in that assay.
